Measurements reported in patent US20030092684A1, “Compositions and methods for treating hemorrhagic virus infections and other disorders” (priority 1999, published 2003).

What was measured:
Dengue virus type 2 = assay: Dengue virus infection treated with tetracycline compounds (Example 4): mortality; type: in vivo, BALB/c mice; details: for % (survival): 20 mice, 20 mg/kg
TNF-α and IL-1β = assay: Serum TNF and IL-1 in Dengue infected mice (Example 4); type: in vivo, BALB/c mice; details: for level of the cytokines in the serum versus control A2 group: 20 mg/kg twice per day from day -3 until day 8
Mononuclear human cells = assay: In vitro activation of mononuclear human cells by antibiotics: IL-1RA and sTNFrI production; type: cell-based; details: 0.06 mg/ml, activation for 2 hours
IL-1RA and sTNFrl = IL-1RA and sTNFrl in human donor serum after oral antibiotic stimulation; type: in vivo
[1] = 20 mg/kg intramuscularly twice per day from day -3 until day 8
[2] = 20 mg/kg intramuscularly twice per day from day -3 until day 8, listed as terramycine
[3] = day 0, 20 mg/kg intramuscularly twice per day from day -3 until day 8
[4] = day 1, 20 mg/kg intramuscularly twice per day from day -3 until day 8
[5] = day 3, 20 mg/kg intramuscularly twice per day from day -3 until day 8
[6] = day 5, 20 mg/kg intramuscularly twice per day from day -3 until day 8
[7] = day 6, 20 mg/kg intramuscularly twice per day from day -3 until day 8
[8] = day 7, 20 mg/kg intramuscularly twice per day from day -3 until day 8
[9] = day 8, 20 mg/kg intramuscularly twice per day from day -3 until day 8
[10] = day 12, 20 mg/kg intramuscularly twice per day from day -3 until day 8
[11] = day -1, 20 mg/kg intramuscularly twice per day from day -3 until day 8
[12] = 20 mg/kg orally twice per day from day -3 until day 8
[13] = 20 mg/kg orally twice per day from day -3 until day 8, listed as vibromycine
[14] = day 0, 20 mg/kg orally twice per day from day -3 until day 8
[15] = day 1, 20 mg/kg orally twice per day from day -3 until day 8
[16] = day 3, 20 mg/kg orally twice per day from day -3 until day 8
[17] = day 5, 20 mg/kg orally twice per day from day -3 until day 8
[18] = day 6, 20 mg/kg orally twice per day from day -3 until day 8
[19] = day 7, 20 mg/kg orally twice per day from day -3 until day 8
[20] = day 8, 20 mg/kg orally twice per day from day -3 until day 8
[21] = day 12, 20 mg/kg orally twice per day from day -3 until day 8
[22] = day -1, 20 mg/kg orally twice per day from day -3 until day 8
[23] = 150 mg orally twice a day, blood taken on the second and third day after beginning
[24] = after stimulation, 2 persons, on the 24th hour

Compound: CN(C)[C@@H]1C(O)=C(C(N)=O)C(=O)[C@@]2(O)C(O)=C3C(=O)c4c(O)cccc4[C@@](C)(O)[C@H]3[C@H](O)[C@@H]12 [Terramycine]
- m.t.d. (Dengue virus type 2; [1]): m.t.d. = 6.53 days
- m.t.d. (Dengue virus type 2; [2]): 6.53 days
- % (survival) (Dengue virus type 2; [1]): % (survival) 15
- % (survival) (Dengue virus type 2; [2]): 15%
- Survival/total amount (Dengue virus type 2; [3]): 20/20
- Survival/total amount (Dengue virus type 2; [4]): 20/20
- Survival/total amount (Dengue virus type 2; [5]): 20/20
- Survival/total amount (Dengue virus type 2; [6]): 19/20
- Survival/total amount (Dengue virus type 2; [7]): 11/20
- Survival/total amount (Dengue virus type 2; [8]): 6/20
- Survival/total amount (Dengue virus type 2; [9]): 3/20
- Survival/total amount (Dengue virus type 2; [10]): 3/20
- Survival/total amount (Dengue virus type 2; [11]): 20/20
- level of the cytokines in the serum versus control A2 group (TNF-α and IL-1β): statistically lower
- increase of the concentration of IL-1 (TNF-α and IL-1β; by day 3 of the disease, stayed until day 7, 20 mg/kg intramuscularly twice per day): 16 fold
- increase of the concentration of TNF (TNF-α and IL-1β; by day 6 of the disease, 20 mg/kg intramuscularly twice per day): 2 fold
- IL-1 (TNF-α and IL-1β; [3]): 7.0 pg/mL
- TNF (TNF-α and IL-1β; [3]): 17.0 pg/mL
- IL-1 (TNF-α and IL-1β; [4]): 21.8 pg/mL
- TNF (TNF-α and IL-1β; [4]): 15.2 pg/mL
- IL-1 (TNF-α and IL-1β; [5]): 112.0 pg/mL
- TNF (TNF-α and IL-1β; [5]): 25.6 pg/mL
- IL-1 (TNF-α and IL-1β; [6]): 84.0 pg/mL
- TNF (TNF-α and IL-1β; [6]): 26.0 pg/mL
- IL-1 (TNF-α and IL-1β; [7]): 80.0 pg/mL
- TNF (TNF-α and IL-1β; [7]): 36.2 pg/mL
- IL-1 (TNF-α and IL-1β; [8]): 76.0 pg/mL
- TNF (TNF-α and IL-1β; [8]): 28.0 pg/mL
- IL-1 (TNF-α and IL-1β; [9]): 42.0 pg/mL
- TNF (TNF-α and IL-1β; [9]): 20.0 pg/mL
- IL-1 (TNF-α and IL-1β; [10]): 16.0 pg/mL
- TNF (TNF-α and IL-1β; [10]): 18.0 pg/mL
- IL-1 (TNF-α and IL-1β; [11]): 7.2 pg/mL
- TNF (TNF-α and IL-1β; [11]): 18.8 pg/mL
- IL-1RA (Mononuclear human cells; 0 hours): 28 + 1.6 pg/ml
- sTNFrI (Mononuclear human cells; 0 hours): 18 + 1.4 pg/ml
- IL-1RA (Mononuclear human cells; 3 hours): 93 + 6.2 pg/ml
- sTNFrI (Mononuclear human cells; 3 hours): 313 + 10.4 pg/ml
- IL-1RA (Mononuclear human cells; 6 hours): 220 + 9.4 pg/ml
- sTNFrI (Mononuclear human cells; 6 hours): 224 + 9.2 pg/ml
- IL-1RA (Mononuclear human cells; 24 hours): 185 + 8.6 pg/ml
- sTNFrI (Mononuclear human cells; 24 hours): 264 + 9.6 pg/ml

Compound: CC1c2cccc(O)c2C(=O)C2=C(O)C3(O)C(=O)C(C(N)=O)=C(O)C(N(C)C)C3C(O)C21 (stereo not shown) [Vybromycine]
- m.t.d. (Dengue virus type 2; [12]): m.t.d. = 6.7 days
- m.t.d. (Dengue virus type 2; [13]): 6.7 days
- % (survival) (Dengue virus type 2; [12]): % (survival) 20
- % (survival) (Dengue virus type 2; [13]): 20%
- Survival/total amount (Dengue virus type 2; [14]): 20/20
- Survival/total amount (Dengue virus type 2; [15]): 20/20
- Survival/total amount (Dengue virus type 2; [16]): 20/20
- Survival/total amount (Dengue virus type 2; [17]): 19/20
- Survival/total amount (Dengue virus type 2; [18]): 15/20
- Survival/total amount (Dengue virus type 2; [19]): 5/20
- Survival/total amount (Dengue virus type 2; [20]): 4/20
- Survival/total amount (Dengue virus type 2; [21]): 4/20
- Survival/total amount (Dengue virus type 2; [22]): 20/20
- increase of the concentration of TNF (TNF-α and IL-1β; 20 mg/kg orally twice per day): 3 fold
- level of the cytokines in the serum versus control A2 group (TNF-α and IL-1β): statistically lower
- increase of the concentration of IL-1 (TNF-α and IL-1β; by day 6 of the infection, 20 mg/kg orally twice per day): 12 fold
- IL-1 (TNF-α and IL-1β; [14]): 7.0 pg/mL
- TNF (TNF-α and IL-1β; [14]): 18.8 pg/mL
- IL-1 (TNF-α and IL-1β; [15]): 11.6 pg/mL
- TNF (TNF-α and IL-1β; [15]): 12.6 pg/mL
- IL-1 (TNF-α and IL-1β; [16]): 60.0 pg/mL
- TNF (TNF-α and IL-1β; [16]): 10.8 pg/mL
- IL-1 (TNF-α and IL-1β; [17]): 62.0 pg/mL
- TNF (TNF-α and IL-1β; [17]): 16.0 pg/mL
- IL-1 (TNF-α and IL-1β; [18]): 84.4 pg/mL
- TNF (TNF-α and IL-1β; [18]): 34.0 pg/mL
- IL-1 (TNF-α and IL-1β; [19]): 64.0 pg/mL
- TNF (TNF-α and IL-1β; [19]): 30.6 pg/mL
- IL-1 (TNF-α and IL-1β; [20]): 30.0 pg/mL
- TNF (TNF-α and IL-1β; [20]): 26.0 pg/mL
- IL-1 (TNF-α and IL-1β; [21]): 17.8 pg/mL
- TNF (TNF-α and IL-1β; [21]): 22.2 pg/mL
- IL-1 (TNF-α and IL-1β; [22]): 7.0 pg/mL
- TNF (TNF-α and IL-1β; [22]): 20.4 pg/mL
- concentration in the human serum of IL-1RA (IL-1RA and sTNFrl; [23]): 184 pg/mL
- concentration in the human serum of sTNFrl (IL-1RA and sTNFrl; [23]): 950 pg/mL
- IL-1RA in the donor serum (IL-1RA and sTNFrl; [24]): 126.8 ± 6.8 pg/mL
- sTNFrl in the donor serum (IL-1RA and sTNFrl; [24]): 970 ± 28.6 pg/mL
- IL-1RA in the donor serum (IL-1RA and sTNFrl; before the stimulation): 20 ± 2.2 pg/mL
- sTNFrl in the donor serum (IL-1RA and sTNFrl; before the stimulation): 22 ± 3.4 pg/mL
